{
  "source": "patent US20040161794A1",
  "about": "(The General Hospital Corporation, priority 2002, published 2004)",
  "key": {"rat hypothalamic tissue": {"test_system": "rat hypothalamic tissue", "conditions": "injected intravenously or included in the in vitro incubation of rat hypothalamic tissue; cited from earlier work"}, "Na^+ pump": {"target": "T1, Na^+ pump (Homo sapiens, UniProt P05023)", "T1 construct": "measuring active ^86Rb^+(K^+ analogue) transport into human erythrocytes; endogenous in cells; host or cells: human erythrocytes", "assay": "Inhibition of Na+ pump activity (active Rb+ uptake) in human erythrocytes", "format": "cell-based", "conditions": "1 mM, standard", "protocol": "After purifying the conditioned medium by reverse-phase column chromatography (Sep-Pak, Waters), the resulting sample was assayed using the ^86Rb uptake assay to determine a change in inhibition as previously described in Carilli et al., J. Biol. Chem., 260:1027-1031 (1985).\nPC12 cells are studied for the presence of the genes of interest, then the release of inhibitor from these cells is confirmed using the method of Komiyama (Komiyama et al., J. Hypertens., 19:229-236 (2001)). Collected supernatants are acidified to dissociate OLC from putative carrier proteins, and purified using Sep-Pak C18 cartridges eluted with acetonitrile."}, "cultured rat myocytes": {"test_system": "cultured rat myocytes", "conditions": "cited from earlier work"}, "[1]": {"test_system": "vascular rings from rat pulmonary artery and aorta", "conditions": "in vitro; cited from earlier work"}, "PC12 cells": {"test_system": "PC12 cells", "conditions": "added to the culture media of PC12 cells; cited from earlier work"}},
  "data": [
    {"smiles": "CC[C@H](C)[C@@H]1NC(=O)[C@H](CCCNC(=N)N)NC(=O)[C@H](CC(=O)O)NC(=O)[C@H](CCSC)NC(=O)[C@H](CCCNC(=N)N)NC(=O)CNC(=O)CNC(=O)[C@H](Cc2ccccc2)NC(=O)[C@@H](NC(=O)[C@H](CO)NC(=O)[C@H](CO)NC(=O)[C@H](CCCNC(=N)N)NC(=O)[C@H](CCCNC(=N)N)NC(=O)[C@H](CC(C)C)NC(=O)[C@@H](N)CO)CSSC[C@@H](C(=O)N[C@@H](CC(N)=O)C(=O)N[C@@H](CO)C(=O)N[C@@H](Cc2ccccc2)C(=O)N[C@@H](CCCNC(=N)N)C(=O)N[C@@H](Cc2ccc(O)cc2)C(=O)O)NC(=O)CNC(=O)[C@H](CC(C)C)NC(=O)CNC(=O)[C@H](CO)NC(=O)[C@H](CCC(N)=O)NC(=O)[C@H](C)NC(=O)CNC1=O", "note": "[atrial natriuretic peptide]", "values": [
      {"measurement": "release of the Na+,K+-ATPase inhibitor", "setting": "rat hypothalamic tissue", "result": "decreased the release"}
    ]},
    {"smiles": "C[C@@H]1O[C@@H](O[C@H]2C[C@@H](O)[C@]3(CO)[C@H]4[C@H](O)C[C@]5(C)[C@@H](C6=CC(=O)OC6)CC[C@]5(O)[C@@H]4CC[C@]3(O)C2)[C@H](O)[C@H](O)[C@H]1O", "note": "[ouabain]", "values": [
      {"measurement": "inhibition of active Na+ transport", "setting": "Na^+ pump", "result": "Complete inhibition"},
      {"measurement": "toxicity at the same intracellular Ca++ concentration", "setting": "cultured rat myocytes", "result": "toxic"},
      {"measurement": "effect on isolated vascular rings", "setting": "[1]", "result": "unaffected by Oua except at toxic concentrations"}
    ]},
    {"smiles": "CC(=O)[C@H]1CC[C@H]2[C@@H]3CCC4=CC(=O)CC[C@]4(C)[C@H]3CC[C@]12C", "note": "[progesterone]", "values": [
      {"measurement": "amount of OLC release into culture supernatants", "setting": "PC12 cells", "result": "augmented in a dose-dependent manner"}
    ]}
  ]
}
